Columns and labels:
[1] = test system: TNF-α secretion in LPS-stimulated macrophage-like THP-1 cells; experiment: LPS-induced TNF-α secretion in THP-1 macrophages (ELISA); type: cell-based, human; conditions: 300 nM, 1 h pretreatment, 24 h after LPS
Protocol: (§1) For the determination of biological activity, we used the human monocytic leukaemia cell line THP-1 (ECACC, Salisbury, UK). The cells were cultivated at 37°C in the RPMI 1640 medium supplemented with 2 mM L-glutamine, 10% FBS, 100 U/mL of penicillin and 100 µg/mL of streptomycin in a humidified atmosphere containing 5% CO2. Stabilized cells (3rd–15th passage) were split into microtitration plates to get a concentration of 500 000 cells/mL and the differentiation to macrophages was induced by phorbol myristate acetate (PMA) dissolved in dimethyl sulfoxide (DMSO) at the final concentration of 50 ng/ml, and the cells were incubated for 24 h. In comparison with monocytes, differentiated macrophages tend to adhere to the bottoms of the cultivation plates. For next 24 h the cells were incubated with a fresh complete RPMI medium, i.e. containing antibiotics and FBS, without PMA. The medium was then aspirated, and the cells were washed with PBS and cultivated for next 24 hours in serum-free RPMI 1640 medium. These prepared macrophages were used for the detection of inflammatory response.
(§2) Differentiated macrophages were pretreated with 300 nM solutions of the tested complexes, HLn, AuCl, [AuCl(PPh3)], PPh3 and Auranofin dissolved in DMSO (the final DMSO concentration was 0.1%) and with 0.1% DMSO solution itself (vehicle) for 1 h; the given concentrations of the tested compounds lack the cytotoxic effect (cell viability >94%) based on the results of WST-1 test. The inflammatory response in pretreated macrophages was triggered by the addition of 1.0 µg/mL lipopolysaccharide (LPS) dissolved in water, while the control cells (CTRL) remained without the LPS treatment.
(§3) Macrophages, which were pretreated with the tested compounds (complexes 1–5, HLn, AuCl, [AuCl(PPh3)], PPh3 and Auranofin) for 1 h, were incubated with LPS for next 24 h. After this period, the medium was collected and the concentration of TNF-α, and IL-1β was determined by the Instant ELISA Kit according to the manufactures' manual.
(§4) The statistically significant differences between individual groups during anti- inflammatory testing were evaluated using a one-way ANOVA test for statistical analysis, followed by Tukey's post-hoc test for multiple comparisons. GraphPad Prism 5.02 (GraphPad Software Inc., San Diego, CA, USA) was used to perform the analysis. The results are presented as arithmetic means±S.E. values.

[2] = test system: A549 lung carcinoma cells; experiment: MTT in vitro cytotoxicity, A549; type: cell-based, human; conditions: 24 h treatment, read-out: IC50±S.E., A549
Protocol: (§5) In vitro cytotoxic activity was determined by the MTT assay in human breast adenocarcinoma (MCF7; ECACC no. 86012803), human osteosarcoma (HOS; ECACC no. 87070202), lung carcinoma (A549; ECACC no. 86012804), malignant melanoma (G361; ECACC no. 88030401), cervix epitheloid carcinoma (HeLa; ECACC no. 93021013), ovarian carcinoma (A2780; ECACC no. 93112519), cisplatin-resistant ovarian carcinoma (A2780R; […] ECACC no 105092802) cancer cell lines, purchased from European Collection of Cell Cultures (ECACC). […] The primary culture of human hepatocytes (HEP220, batch number HEP220819) was obtained from Biopredic International (France). The culture medium was Williams and HAM's F-12 (1∶1) supplemented with penicillin, streptomycin, ascorbic acid, linoleic acid, holo-transferin, ethanolamine, glucagon, insulin, dexamethasone, pyruvate, glucose, glutamine, amphotericin. The medium was enriched for plating with 2% foetal calf serum (v/v). The medium was exchanged for a serum-free medium the day after and the culture was stabilized for additional 24 h. Thereafter, the cells were ready for treatments. […] The MTT assay was performed spectrophotometrically at 540 nm (TECAN, Schoeller Instruments LLC). The cytotoxicity data were expressed as the percentage of viability, where 100% represented the treatments with vehicle (0.1% DMF or 0.1% DMSO). The cytotoxicity data from the cancer cell lines were acquired from three independent experiments (conducted in triplicate) using cells from different passages. The IC50 values were calculated from viability curves. The results are presented as arithmetic means±standard error of the mean (S.E.).

[3] = test system: MCF7 breast carcinoma cells; experiment: MTT in vitro cytotoxicity, MCF7; type: cell-based, human; conditions: 24 h treatment, read-out: IC50±S.E., MCF7
Protocol: as §5

[4] = test system: A2780R ovarian carcinoma cells resistant to cisplatin; experiment: MTT in vitro cytotoxicity, A2780R; type: cell-based, human; conditions: for IC50: 24 h treatment, MTT, read-out: IC50±S.E., A2780R
Protocol: as §5

[5] = test system: HOS osteosarcoma cells; experiment: MTT in vitro cytotoxicity, HOS; type: cell-based, human; conditions: 24 h treatment, read-out: IC50±S.E., HOS
Protocol: as §5

[6] = test system: THP-1 monocytic leukaemia cells; experiment: WST-1 in vitro cytotoxicity, THP-1; type: cell-based, human; conditions: 24 h treatment, WST-1, 0.16–10.00 µM; read-out: IC50±S.E., THP-1
Protocol: Before the in vitro anti-inflammatory testing, in vitro cytotoxicity on human monocytic leukaemia cells (THP-1, ECACC no. 88081201) was determined using the WST-1 assay. The THP-1 cells (floating monocytes, 500 000 cells/mL) were incubated in 100 µL of the serum-free RPMI 1640 medium and seeded into 96-well plates in triplicate at 37°C. Measurements were taken 24 h after the treatment with the tested compounds dissolved in 0.1% DMSO in the concentration range of 0.16–10.00 µM. Viability was determined by the WST-1 test according to the manufacturer's manual. The amount of the formed formazan (which correlates to the number of metabolically active cells in the culture) was calculated as a percentage of the control cells, which were treated only with 0.1% DMSO and was set-up as 100%. The IC50 values of the tested compounds were calculated from the obtained data. The WST-1 assay was performed spectrophotometrically at 440 nm (FLUOstar Omega, BMG Labtech).
The cytotoxicity data were expressed as the percentage of viability, where 100% represented the treatments with vehicle (0.1% DMF or 0.1% DMSO). The cytotoxicity data from the cancer cell lines were acquired from three independent experiments (conducted in triplicate) using cells from different passages. The IC50 values were calculated from viability curves. The results are presented as arithmetic means±standard error of the mean (S.E.). The significance of the differences between the results was assessed by the ANOVA analysis with p<0.05 considered to be significant (QC Expert 3.2, Statistical software, TriloByte Ltd., Pardubice, Czech Republic).

[7] = test system: HeLa cervix epitheloid carcinoma cells; experiment: MTT in vitro cytotoxicity, HeLa; type: cell-based, human; conditions: 24 h treatment, read-out: IC50±S.E., HeLa
Protocol: as §5

[8] = test system: G361 malignant melanoma cells; experiment: MTT in vitro cytotoxicity, G361; type: cell-based, human; conditions: 24 h treatment, read-out: IC50±S.E., G361
Protocol: as §5

[9] = test system: primary culture of human hepatocytes (HEP220); experiment: MTT in vitro cytotoxicity, primary human hepatocytes; type: cell-based; conditions: 24 h treatment, MTT; read-out: IC50±S.E., HEP220 (healthy human hepatocytes)
Protocol: as §5

[10] = test system: λ-carrageenan-induced hind paw edema; experiment: Carrageenan-induced hind paw edema; type: in vivo, Wistar-SPF rats; conditions: i.p., dose equivalent in gold to 10 mg/kg Auranofin
Protocol: Wistar-SPF (6–8 weeks male) rats were obtained from AnLab, Ltd. (Prague, Czech Republic). The animals were kept in plexiglass cages at the constant temperature of 22±1°C and relative humidity of 55±5% for at least 1 week before the experiment. They were given food and water ad libitum. All the experimental procedures were performed according to the National Institutes of Health (NIH) Guide for the Care and Use of Laboratory Animals. In addition, all the tests were conducted under the guidelines of the International Association for the Study of Pain [61]. After a one-week adaptation period, male Wistar-SPF rats (200–250 g) were randomly assigned to five groups (n = 7) of the animals in the study. The first, control group, received 25% DMSO (v/v in water, intraperitoneal; i.p.). The next three groups were pretreated with complexes 2, 4 and 5, and involved into the carrageenan-treatment. The fifth group was treated with a non-steroidal anti-inflammatory drug Indomethacin (5 mg/kg), which served as a positive control group (Indomethacin + carrageenan).
The carrageenan-induced hind paw edema model was used for the determination of anti-inflammatory activity. Animals were i.p. pretreated with complexes 2, 4, and 5 (the dosages of the individual complexes were adjusted to contain the same amount of gold as in 10 mg/kg dose of Auranofin), Indomethacin (5 mg/kg), or 25% DMSO (v/v in water) 30 min prior to the injection of 1% λ-carrageenan solution (50 µL) into the plantar side of right hind paws of the rats. The paw volume was measured immediately after the carrageenan injection (this value was set-up as baseline value for the hind paw volume) and during the next 6 h after the administration of the edematogenic agent using a plethysmometer (model 7159, Ugo Basile, Varese, Italy). The degree of swelling was evaluated as a percentage of the change of the volume of the right hind paw after the carrageenan treatment from the baseline volume. A non-steroidal anti-inflammatory drug Indomethacin was used as a positive control and the obtained data were also compared with the previously reported profile of antiedematous activity for Auranofin [38]. After 6 h, the animals were sacrificed and the edematous feet were dissected, the tissue from the plantar parts was extracted, fixed and stained by a standard hematoxylin/eosin (HE) staining for cytological evaluation of polymorphonuclear cells infiltration.
as §4

[11] = test system: A2780 ovarian carcinoma cells; experiment: MTT in vitro cytotoxicity, A2780; type: cell-based, human; conditions: 24 h treatment, read-out: IC50±S.E., A2780
Protocol: as §5

[12] = test system: 22Rv1 prostate carcinoma cells; experiment: MTT in vitro cytotoxicity, 22Rv1; type: cell-based, human; conditions: 24 h treatment, read-out: IC50±S.E., 22Rv1
Protocol: as §5

[13] = test system: IL-1β secretion in LPS-stimulated macrophage-like THP-1 cells; experiment: LPS-induced IL-1β secretion in THP-1 macrophages (ELISA); type: cell-based, human; conditions: 300 nM, 1 h pretreatment, 24 h after LPS
Protocol: as §1, §2, §3, §4

SMILES	effect on LPS-induced TNF-α secretion [1]	IC50 [2] [µM]	IC50 [3] [µM]	IC50 [4] [µM]	IC50 [5] [µM]	IC50 [6] [µM]	IC50 [7] [µM]	IC50 [8] [µM]	IC50 [9] [µM]	IC50 [11] [µM]	IC50 [12] [µM]	also measured
c1ccc(CCOc2ncnc3cc[nH]c23)cc1 [HL5, 6-phenethyloxy-9-deazapurine]	stimulate the production	–	–	–	–	–	–	–	–	–	–	–
[Cl][Au].c1ccc(P(c2ccccc2)c2ccccc2)cc1 [[AuCl(PPh3)], reference compound]	none of the reference compounds, such as AuCl, HLn, [AuCl(PPh3)] and PPh3, exhibited any expected effect	–	–	–	–	–	–	–	–	–	–	–
[Au][n]1ccc2ncnc(OCc3ccccc3)c21.c1ccc(P(c2ccccc2)c2ccccc2)cc1 [complex 4]	–	> 20	4 ± 0.9	5.1 ± 0.3	1.8 ± 0.3	1.7 ± 0.1	14.3 ± 0.2	3.5 ± 0.2	23.7 ± 2.1	4.6 ± 0.2	3.5 ± 0.2	overall antiedematous / anti-inflammatory activity [10]: significant anti-inflammatory effects; antiedematous activity profile up to 180 min after carrageenan ([10]; 30 min before carrageenan): very similar pharmacological profiles of complexes 2 and 4 with the reference drug Indomethacin
N.N.[Cl][Pt][Cl] [cisplatin, reference compound]	–	> 50	17.9 ± 1.2	27 ± 1.5	20.5 ± 0.1	–	> 50	5.3 ± 0.2	> 50	11.5 ± 0.5	26.9 ± 1.2	resistance factor (RF), IC50(A2780R)/IC50(A2780) ([4]; ratio resistant/sensitive cells): 2.4
CCOc1ncnc2cc[n]([Au])c12.c1ccc(P(c2ccccc2)c2ccccc2)cc1 [complex 1]	–	20.7 ± 0.1	3.1 ± 0.2	5.2 ± 0.3	3.3 ± 0.1	0.8 ± 0.1	22 ± 0.6	3.5 ± 0.2	24 ± 1.9	4.8 ± 0.1	3.5 ± 0.1	level of IL-1β diminished by [13]: 32%
c1ccc(P(c2ccccc2)c2ccccc2)cc1 [PPh3, triphenylphosphine]	none of the reference compounds, such as AuCl, HLn, [AuCl(PPh3)] and PPh3, exhibited any expected effect	–	–	–	–	–	–	–	–	–	–	effect on LPS-induced IL-1β secretion [13]: decreased the production of IL-1β by a manner comparable to free ligands; level of IL-1β diminished by [13]: ~32%
CC(C)Oc1ncnc2cc[nH]c12 [HL2, 6-isopropyloxy-9-deazapurine]	stimulate the production	–	–	–	–	–	–	–	–	–	–	–
c1ccc(COc2ncnc3cc[nH]c23)cc1 [HL4, 6-benzyloxy-9-deazapurine]	stimulate the production	–	–	–	–	–	–	–	–	–	–	–
[Au][n]1ccc2ncnc(OCC3CCCO3)c21.c1ccc(P(c2ccccc2)c2ccccc2)cc1 [complex 3]	–	21.4 ± 0.2	2.2 ± 0.2	5.3 ± 0.4	4 ± 0.6	1 ± 0.1	20.7 ± 0.2	3.4 ± 0.2	24.1 ± 2.4	4.6 ± 0.3	21 ± 0.7	–

— PMC4198181, “Gold(I) Complexes of 9-Deazahypoxanthine as Selective Antitumor and Anti-Inflammatory Agents” (PLoS ONE, 2014)
